# Source: article PMC6403309, “Hybrid approach to sieve out natural compounds against dual targets in Alzheimer’s Disease” (Scientific Reports, 2019)
# Like-named read-outs stand apart in the source and are kept apart here.
# Legend:
# BACE1 = target: T1, BACE1 (Homo sapiens, UniProt P56817); test: BACE1 inhibition assay (FRET activity assay kit); format: biochemical; conditions: for inhibition at 1 µM: read-out: Single point inhibition % (SPI1μM)
# T1 construct: purchased Sigma Aldrich
# Aβ25–35 = target: T2, Aβ25–35 (Homo sapiens, UniProt P05067); test: Thioflavin T assay of Aβ25–35 aggregation; format: biochemical; conditions: compound 100 µM co-incubated with Aβ25–35 100 µM, 72 hours, 37 °C
# T2 construct: Aβ25–35 was bought from Anaspec in powdered form; purchased Anaspec
# Description: The dye Thioflavin T (ThT), is used to quantify amyloid aggregates. On binding to the beta sheets of amyloid aggregates, the rotation of the ThT rings is hampered thus preserving the excited states leading to fluorescence enhancement. The Aβ25–35 sample was prepared by dissolving it in HFIP to remove any preformed aggregates and keeping aliquots at −80 °C. On the day of assay, aliquot of the HFIP dissolved Aβ25–35 (final concentration 100 µM) was lyophilized. Thereafter the lyophilized sample was dissolved in phosphate buffer. A stock solution of the compounds with concentration of 1 mM was prepared in DMSO. The compounds with final concentration of 100 µM were co-incubated with Aβ25–35 for 72 hours at 37 °C. The co-incubated samples were diluted five times. A stock solution of Thioflavin T was prepared in DMSO and final concentration of 15 µM was added. The fluorescence was measured by excitation at 440 nm and emission at 460–550 nm.
# T1 sequence (P56817 46-501): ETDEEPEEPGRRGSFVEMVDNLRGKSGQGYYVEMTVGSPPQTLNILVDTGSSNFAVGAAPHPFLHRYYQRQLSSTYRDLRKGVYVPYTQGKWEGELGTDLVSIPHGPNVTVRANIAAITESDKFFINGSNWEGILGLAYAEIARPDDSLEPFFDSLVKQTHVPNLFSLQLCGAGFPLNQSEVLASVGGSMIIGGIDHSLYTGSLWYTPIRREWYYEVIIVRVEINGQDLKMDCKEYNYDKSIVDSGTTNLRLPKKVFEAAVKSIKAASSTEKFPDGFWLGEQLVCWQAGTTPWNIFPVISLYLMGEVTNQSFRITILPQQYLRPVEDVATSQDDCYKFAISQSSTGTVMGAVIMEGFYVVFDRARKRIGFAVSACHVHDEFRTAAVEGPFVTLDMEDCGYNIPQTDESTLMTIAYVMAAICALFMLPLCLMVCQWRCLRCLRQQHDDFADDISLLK
reduction in the fibril formation (Aβ25–35),BACE1 inhibition activity (in words) (BACE1; compound 1 µM),"inhibition at 1 µM (BACE1; compound 1 µM, 37 °C, 2 hours) [%]",SMILES,inhibition at 1 µM (BACE1) [%]
,,,"O=c1c(O)c(-c2ccc(O)c(O)c2)oc2c(O)c(O)cc(O)c12 [Gossypetin, reference compound]",4.6
more than 50%,moderate BACE1 inhibition activity,17,COC(=O)C(Cc1ccccc1)NC(=O)COc1cc(O)c2c(=O)c(-c3ccc4c(c3)OCCO4)coc2c1 (stereo not shown) [ZINC01758814],
